# Assay results: patent publication US8349836B2, “Phthalazine derivatives as inhibitors of protein kinase” (priority 2006, dated 2013)
# Biological target: p70S6K(h) (Homo sapiens, UniProt P23443)
# Assay: Enzyme Inhibition Assay (p70S6K(h))
# Assay type: biochemical
# Details: at 0.3 μM concentration
# Method: Enzyme Inhibition Assay (p70S6K(h))
# In a final reaction volume of 25 uL, p70S6K(h) (5-10 mU) is incubated with 8 mM MOPS pH 7.0, 0.2 mM EDTA, 100 iM KKRNRTLTV, 10 mM MgAcetate and [gamma-33P-ATP] (specific activity approx. 500 cpm/pmol, concentration as required). The reaction is initiated by the addition of the MgATP mix. After incubation for 40 minutes at room temperature, the reaction is stopped by the addition of 5 uL of a 3% phosphoric acid solution. 10 uL of the reaction is then spotted onto a P30 filtermat and washed three times for 5 minutes in 75 mM phosphoric acid and once in methanol prior to drying and scintillation counting.
# Chain of p70S6K(h) (P23443 whole entry): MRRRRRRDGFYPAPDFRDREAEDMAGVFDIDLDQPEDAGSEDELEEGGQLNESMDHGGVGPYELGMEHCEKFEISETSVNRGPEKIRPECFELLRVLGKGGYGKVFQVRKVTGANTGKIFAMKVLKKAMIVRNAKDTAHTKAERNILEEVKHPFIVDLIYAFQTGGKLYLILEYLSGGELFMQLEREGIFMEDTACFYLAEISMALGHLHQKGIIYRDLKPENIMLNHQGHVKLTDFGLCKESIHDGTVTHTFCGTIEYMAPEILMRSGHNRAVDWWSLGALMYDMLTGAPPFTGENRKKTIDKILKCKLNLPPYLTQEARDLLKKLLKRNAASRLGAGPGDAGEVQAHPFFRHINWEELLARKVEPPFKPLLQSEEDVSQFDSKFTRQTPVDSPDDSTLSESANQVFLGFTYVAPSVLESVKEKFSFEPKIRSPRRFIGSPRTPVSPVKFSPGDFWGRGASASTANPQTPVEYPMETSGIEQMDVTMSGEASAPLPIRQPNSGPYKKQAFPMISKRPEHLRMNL
row,Compound,inhibition at 0.3 µM
1,"Oc1nnc(Cl)c2cc(NCc3cccc(C(F)(F)F)c3)ccc12 [Example 24, 4-chloro-6-(3-trifluoromethyl-benzylamino)-phthalazin-1-ol]",> 50%
2,"O=C(Nc1cccc(C(F)(F)F)c1)c1ccc2c(O)nnc(Cl)c2c1 [Example 26, 4-Chloro-1-hydroxy-phthalazine-6-carboxylic acid (3-trifluoromethyl-phenyl)-amide]",> 50%
3,"O=C(Nc1cccc(C(F)(F)F)c1)c1ccc2c(O)nnc(I)c2c1 [Example 42, 4-Iodo-1-hydroxy-phthalazine-6-carboxylic acid (3-trifluoromethyl-phenyl)-amide]",> 50%
4,"O=c1[nH]nc(Cl)c2ccc(Nc3cccc(C(F)(F)F)c3)cc12 [Example 64, 4-Chloro-7-(3-trifluoromethyl-phenylamino)-2H-phthalazin-1-one]",> 50%
5,"O=c1[nH]nc(Cl)c2cc(NCc3cccc4c3OCCCO4)ccc12 [Example 107, 4-Chloro-6-[(3,4-dihydro-2H-benzo[b][1,4]dioxepin-6-ylmethyl)-amino]-2H-phthalazin-1-one]",> 50%
6,"O=c1[nH]nc(Cl)c2cc(N3CCN(c4ccccc4)CC3)ccc12 [Example 126, 4-Chloro-6-(4-phenyl-piperazin-1-yl)-2H-phthalazin-1-one]",> 50%
